Results from ChEMBL document CHEMBL3804754, “Optimization of Novel Aza-benzimidazolone mGluR2 PAMs with Respect to LLE and PK Properties and Mitigation of CYP TDI” (ACS Med Chem Lett, 2016).
pEC50, pKi: −log10 of the molar value. In brackets after ≈: the same amount, converted by molar mass. Each block holds one compound with its values, some of them ahead of it. Activity calls are given as the source filed them. No cut-off for these calls is given here.

Key:
[1] = target: T1, Metabotropic glutamate receptor 2 (Homo sapiens, UniProt Q14416); test: Positive allosteric modulation of recombinant human mGlu2 receptor expressed in CHO cells assessed as potentiation of glutamate-induced effect preincubated for 5 mins followed by glutamate stimulation for 3 mins by Fluo-4AM staining-based FLIPR assay; assay type: cell-based
[2] = Solubility of compound at pH 7; assay type: physicochemical; details: buffer
[3] = (§1) AUC in Wistar Hannover rat at 10 mg/kg, po administered as single dose; assay type: ADME, organism-based; details: Wistar Hannover, in vivo
[4] = target: Metabotropic glutamate receptor 3 (Homo sapiens, UniProt Q14832); test: Positive allosteric modulation of mGlu3 receptor (unknown origin)
[5] = target: Metabotropic glutamate receptor 4 (Homo sapiens, UniProt Q14833); test: Positive allosteric modulation of mGlu4 receptor (unknown origin)
[6] = target: Metabotropic glutamate receptor 5 (Homo sapiens, UniProt P41594); test: Positive allosteric modulation of mGlu5 receptor (unknown origin)
[7] = target: Metabotropic glutamate receptor 6 (Homo sapiens, UniProt O15303); test: Positive allosteric modulation of mGlu6 receptor (unknown origin)
[8] = Half life in Wistar Hannover rat at 2 mg/kg, iv administered as single dose; assay type: ADME, organism-based; details: in vivo
Rattus norvegicus [9] = test: Fraction unbound adjusted clearance in Wistar Hannover rat at 2 mg/kg, iv administered as single dose; assay type: ADME, organism-based; details: in vivo
Rattus norvegicus [10] = test: as §1; assay type: ADME, organism-based; details: in vivo
Rattus norvegicus [11] = test: (§2) Oral bioavailability in Wistar Hannover rat at 10 mg/kg administered as single dose; assay type: ADME, organism-based; details: in vivo
CYP3A4 [12] = target: T2, CYP3A4 (Homo sapiens, UniProt P08684); test: Inhibition of CYP3A4 in human liver microsomes at 10 uM; assay type: ADME
[13] = Clearance in Wistar Hannover rat at 2 mg/kg, iv administered as single dose; assay type: ADME, organism-based; details: in vivo
[14] = as §2; assay type: ADME, organism-based; details: Wistar Hannover, in vivo
[15] = Fraction unbound in Beagle dog plasma at 0.5 mg/kg, iv administered as single dose; assay type: ADME, organism-based, Canis lupus familiaris
[16] = Half life in Beagle dog at 0.5 mg/kg, iv administered as single dose; assay type: ADME, organism-based, Canis lupus familiaris; details: in vivo
Canis familiaris = test: Fraction unbound adjusted clearance in Beagle dog at 0.5 mg/kg, iv administered as single dose; assay type: ADME, organism-based, Canis lupus familiaris; details: in vivo
Rattus norvegicus [17] = test: Antipsychotic activity in Sprague-Dawley rat assessed as inhibition of MK-801-induced hyperlocomotive activity at 30 mg/kg, treated for 30 mins followed by MK-801 challenge measured over 90 mins relative to vehicle control; assay type: functional, organism-based
Cerebrospinal fluid = test: Drug uptake in Sprague-Dawley rat cerebrospinal fluid at 30 mg/kg, po; assay type: ADME, organism-based; details: in vivo, read-out: Drug uptake
Salmonella typhimurium [18] = test: Mutagenicity in Salmonella typhimurium by Ames test in presence of S9 liver fraction; assay type: toxicity, organism-based; details: salmonella enterica subsp. enterica serovar typhimurium
Salmonella typhimurium [19] = test: Mutagenicity in Salmonella typhimurium by Ames test in absence of S9 liver fraction; assay type: toxicity, organism-based; details: salmonella enterica subsp. enterica serovar typhimurium
[20] = Fraction unbound in Wistar Hannover rat plasma at 2 mg/kg, iv administered as single dose; assay type: ADME, organism-based
[21] = target: D(2) dopamine receptor (Homo sapiens) (UniProt P14416); test: Activity at dopamine D2 receptor (unknown origin)
[22] = target: 5-hydroxytryptamine receptor 2A (Homo sapiens) (UniProt P28223); test: Activity at 5HT2A receptor (unknown origin)
Homo sapiens = species on record: Homo sapiens; test: Activity at PDE10 (unknown origin)
[23] = Substrate activity at human P-gp assessed as apparent permeability; assay type: ADME
P-gp [24] = test: Substrate activity at rat P-gp assessed as efflux ratio of apparent permeability from basolateral to apical side to apical to basolateral side; assay type: ADME; details: not told
P-gp [25] = test: Substrate activity at rat P-gp assessed as apparent permeability; assay type: ADME; details: not told
[26] = target: T1, Metabotropic glutamate receptor 2; test: Agonist activity at recombinant human mGlu2 receptor expressed in CHO cells assessed as potentiation of glutamate-induced effect preincubated for 5 mins followed by glutamate stimulation for 3 mins by Fluo-4AM staining-based FLIPR assay; assay type: cell-based
[27] = target: T1, Metabotropic glutamate receptor 2; test: Positive allosteric modulation of recombinant human mGlu2 receptor expressed in CHO cells assessed as decrease in glutamate EC50 at 1 uM preincubated for 5 mins followed by glutamate stimulation for 3 mins by Fluo-4AM staining-based FLIPR assay relative to control; assay type: cell-based
Target sequence in this assay (Q14416 19-872 limits assumed): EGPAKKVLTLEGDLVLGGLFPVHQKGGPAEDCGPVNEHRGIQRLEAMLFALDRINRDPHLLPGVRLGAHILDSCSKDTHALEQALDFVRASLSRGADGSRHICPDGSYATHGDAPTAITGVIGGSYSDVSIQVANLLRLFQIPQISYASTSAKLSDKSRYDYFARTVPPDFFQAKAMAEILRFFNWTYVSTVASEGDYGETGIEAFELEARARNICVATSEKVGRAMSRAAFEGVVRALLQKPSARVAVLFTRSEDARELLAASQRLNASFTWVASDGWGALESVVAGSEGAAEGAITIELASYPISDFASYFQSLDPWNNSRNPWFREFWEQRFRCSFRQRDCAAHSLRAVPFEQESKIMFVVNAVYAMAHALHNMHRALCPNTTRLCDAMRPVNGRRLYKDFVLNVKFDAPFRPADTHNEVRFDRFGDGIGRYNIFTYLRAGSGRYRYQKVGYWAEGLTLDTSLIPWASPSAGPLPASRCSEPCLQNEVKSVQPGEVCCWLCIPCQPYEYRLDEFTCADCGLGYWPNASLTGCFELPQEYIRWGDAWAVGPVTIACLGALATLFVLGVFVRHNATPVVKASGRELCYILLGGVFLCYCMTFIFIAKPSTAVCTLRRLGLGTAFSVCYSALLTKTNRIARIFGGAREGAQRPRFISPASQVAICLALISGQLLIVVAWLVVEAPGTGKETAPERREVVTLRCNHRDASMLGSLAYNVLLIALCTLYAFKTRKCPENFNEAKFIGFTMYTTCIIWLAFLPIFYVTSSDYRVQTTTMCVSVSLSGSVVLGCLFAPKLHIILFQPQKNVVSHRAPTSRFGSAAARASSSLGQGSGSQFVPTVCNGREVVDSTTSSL

[28] = Clearance in Beagle dog at 0.5 mg/kg, iv administered as single dose; assay type: ADME, organism-based, Canis lupus familiaris; details: in vivo
[29] = AUC in Beagle dog at 1 mg/kg, po administered as single dose; assay type: ADME, organism-based, Canis lupus familiaris; details: in vivo
[30] = Oral bioavailability in Beagle dog at 1 mg/kg administered as single dose; assay type: ADME, organism-based, Canis lupus familiaris; details: in vivo
[31] = Intrinsic clearance in dog liver microsomes at 10 uM incubated for 20 to 60 mins by LC-HRMS analysis in presence of NADPH/GSH; assay type: ADME, Canis lupus familiaris; details: read-out: CLH
Rattus norvegicus [32] = test: Antipsychotic activity in Sprague-Dawley rat assessed as inhibition of MK-801-induced hyperlocomotive activity at 10 mg/kg, treated for 30 mins followed by MK-801 challenge measured over 90 mins relative to vehicle control; assay type: functional, organism-based
Plasma = test: Plasma concentration in Sprague-Dawley rat at 10 mg/kg, po; assay type: ADME, organism-based; details: in vivo
CYP3A4 [33] = target: T2, CYP3A4; test: (§3) Time dependent inhibition of CYP3A4 in human liver microsomes; assay type: ADME; details: human, liver microsomes
Cytochrome P450 3A4 = Cytochrome P450 3A4 (Homo sapiens, UniProt P08684); test: as §3; assay type: ADME
[34] = target: Metabotropic glutamate receptor 2 (Rattus norvegicus, UniProt P31421); test: Positive allosteric modulation of rat mGlu2 receptor assessed as potentiation of glutamate-induced effect by Fluo-4AM staining-based FLIPR assay

Sequence of Metabotropic glutamate receptor 5 (P41594 whole entry): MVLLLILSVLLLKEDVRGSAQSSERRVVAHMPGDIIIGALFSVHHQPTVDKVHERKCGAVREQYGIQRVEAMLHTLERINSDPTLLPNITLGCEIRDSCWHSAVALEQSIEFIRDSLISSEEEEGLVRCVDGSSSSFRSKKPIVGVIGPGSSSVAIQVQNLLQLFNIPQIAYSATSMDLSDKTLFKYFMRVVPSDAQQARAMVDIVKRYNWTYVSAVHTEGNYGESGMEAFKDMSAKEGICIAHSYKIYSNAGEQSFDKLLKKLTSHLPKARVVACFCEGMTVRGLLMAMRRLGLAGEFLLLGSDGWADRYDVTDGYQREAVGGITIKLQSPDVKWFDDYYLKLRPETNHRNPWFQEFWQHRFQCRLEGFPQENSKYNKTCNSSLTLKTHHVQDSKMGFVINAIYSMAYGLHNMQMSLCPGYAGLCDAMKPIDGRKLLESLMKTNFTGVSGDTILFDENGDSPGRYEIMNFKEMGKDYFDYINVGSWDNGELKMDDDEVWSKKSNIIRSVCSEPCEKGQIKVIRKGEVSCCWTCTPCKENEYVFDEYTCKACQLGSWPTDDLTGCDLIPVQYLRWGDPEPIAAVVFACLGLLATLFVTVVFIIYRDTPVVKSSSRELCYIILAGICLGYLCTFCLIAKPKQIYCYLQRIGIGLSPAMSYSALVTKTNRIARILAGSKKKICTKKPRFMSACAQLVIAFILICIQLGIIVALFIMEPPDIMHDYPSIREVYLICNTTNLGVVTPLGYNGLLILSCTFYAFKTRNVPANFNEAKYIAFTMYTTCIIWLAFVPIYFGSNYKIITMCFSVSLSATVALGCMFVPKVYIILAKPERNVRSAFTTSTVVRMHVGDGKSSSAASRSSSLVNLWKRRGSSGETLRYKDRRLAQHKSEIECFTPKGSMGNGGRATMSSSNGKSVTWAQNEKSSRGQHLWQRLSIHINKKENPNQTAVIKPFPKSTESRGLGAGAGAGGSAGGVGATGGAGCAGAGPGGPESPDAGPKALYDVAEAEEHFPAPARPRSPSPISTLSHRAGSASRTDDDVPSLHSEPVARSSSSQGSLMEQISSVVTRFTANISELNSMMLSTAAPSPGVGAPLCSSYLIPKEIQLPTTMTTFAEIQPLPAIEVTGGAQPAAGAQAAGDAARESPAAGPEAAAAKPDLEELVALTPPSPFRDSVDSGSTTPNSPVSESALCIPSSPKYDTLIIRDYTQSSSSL
Sequence of Metabotropic glutamate receptor 4 (Q14833 whole entry): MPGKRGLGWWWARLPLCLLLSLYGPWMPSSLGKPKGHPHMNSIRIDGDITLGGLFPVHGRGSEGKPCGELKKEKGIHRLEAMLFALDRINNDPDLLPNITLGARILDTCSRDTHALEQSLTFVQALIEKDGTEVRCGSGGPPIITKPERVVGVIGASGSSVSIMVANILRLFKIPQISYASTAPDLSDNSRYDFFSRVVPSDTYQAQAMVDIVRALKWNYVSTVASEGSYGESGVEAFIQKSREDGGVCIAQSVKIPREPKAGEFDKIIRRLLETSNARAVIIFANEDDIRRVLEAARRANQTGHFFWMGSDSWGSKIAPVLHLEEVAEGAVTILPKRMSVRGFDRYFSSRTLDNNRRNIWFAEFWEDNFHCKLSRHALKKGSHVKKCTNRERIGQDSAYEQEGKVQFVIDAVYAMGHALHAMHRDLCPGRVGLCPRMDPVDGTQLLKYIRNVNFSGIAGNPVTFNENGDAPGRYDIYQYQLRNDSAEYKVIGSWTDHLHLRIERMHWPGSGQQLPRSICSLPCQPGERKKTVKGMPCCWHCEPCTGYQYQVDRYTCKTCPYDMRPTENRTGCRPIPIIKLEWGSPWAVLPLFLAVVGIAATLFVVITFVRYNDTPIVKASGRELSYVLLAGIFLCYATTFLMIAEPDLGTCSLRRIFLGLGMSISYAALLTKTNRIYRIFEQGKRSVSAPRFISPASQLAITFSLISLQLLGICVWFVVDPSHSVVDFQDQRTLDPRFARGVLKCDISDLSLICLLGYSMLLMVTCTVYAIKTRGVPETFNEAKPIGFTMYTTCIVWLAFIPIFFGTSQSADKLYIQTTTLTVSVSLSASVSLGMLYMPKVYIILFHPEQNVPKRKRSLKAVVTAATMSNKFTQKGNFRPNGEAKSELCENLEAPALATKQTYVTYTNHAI
Sequence of Metabotropic glutamate receptor 6 (O15303 whole entry): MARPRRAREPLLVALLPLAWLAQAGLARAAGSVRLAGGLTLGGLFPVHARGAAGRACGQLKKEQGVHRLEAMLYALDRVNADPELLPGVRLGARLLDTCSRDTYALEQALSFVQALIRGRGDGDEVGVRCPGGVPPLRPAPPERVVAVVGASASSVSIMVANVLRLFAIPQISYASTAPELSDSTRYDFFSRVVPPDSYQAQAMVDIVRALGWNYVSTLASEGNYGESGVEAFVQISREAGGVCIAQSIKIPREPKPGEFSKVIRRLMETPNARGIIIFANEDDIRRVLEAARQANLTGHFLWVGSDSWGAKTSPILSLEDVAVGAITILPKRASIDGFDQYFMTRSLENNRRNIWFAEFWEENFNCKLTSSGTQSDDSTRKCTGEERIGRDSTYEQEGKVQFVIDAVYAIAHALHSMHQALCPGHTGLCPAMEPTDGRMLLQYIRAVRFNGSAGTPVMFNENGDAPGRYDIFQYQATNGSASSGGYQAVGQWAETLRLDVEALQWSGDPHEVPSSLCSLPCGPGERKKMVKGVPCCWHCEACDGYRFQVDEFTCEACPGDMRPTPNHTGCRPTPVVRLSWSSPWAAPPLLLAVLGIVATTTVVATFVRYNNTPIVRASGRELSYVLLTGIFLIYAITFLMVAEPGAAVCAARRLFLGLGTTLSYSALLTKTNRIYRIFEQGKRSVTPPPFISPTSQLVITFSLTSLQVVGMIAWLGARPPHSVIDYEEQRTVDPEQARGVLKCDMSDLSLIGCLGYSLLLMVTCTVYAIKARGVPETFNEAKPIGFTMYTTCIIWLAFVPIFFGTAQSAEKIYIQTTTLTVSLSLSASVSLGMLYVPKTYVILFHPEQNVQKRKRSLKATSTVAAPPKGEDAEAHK
Sequence of Metabotropic glutamate receptor 3 (Q14832 whole entry): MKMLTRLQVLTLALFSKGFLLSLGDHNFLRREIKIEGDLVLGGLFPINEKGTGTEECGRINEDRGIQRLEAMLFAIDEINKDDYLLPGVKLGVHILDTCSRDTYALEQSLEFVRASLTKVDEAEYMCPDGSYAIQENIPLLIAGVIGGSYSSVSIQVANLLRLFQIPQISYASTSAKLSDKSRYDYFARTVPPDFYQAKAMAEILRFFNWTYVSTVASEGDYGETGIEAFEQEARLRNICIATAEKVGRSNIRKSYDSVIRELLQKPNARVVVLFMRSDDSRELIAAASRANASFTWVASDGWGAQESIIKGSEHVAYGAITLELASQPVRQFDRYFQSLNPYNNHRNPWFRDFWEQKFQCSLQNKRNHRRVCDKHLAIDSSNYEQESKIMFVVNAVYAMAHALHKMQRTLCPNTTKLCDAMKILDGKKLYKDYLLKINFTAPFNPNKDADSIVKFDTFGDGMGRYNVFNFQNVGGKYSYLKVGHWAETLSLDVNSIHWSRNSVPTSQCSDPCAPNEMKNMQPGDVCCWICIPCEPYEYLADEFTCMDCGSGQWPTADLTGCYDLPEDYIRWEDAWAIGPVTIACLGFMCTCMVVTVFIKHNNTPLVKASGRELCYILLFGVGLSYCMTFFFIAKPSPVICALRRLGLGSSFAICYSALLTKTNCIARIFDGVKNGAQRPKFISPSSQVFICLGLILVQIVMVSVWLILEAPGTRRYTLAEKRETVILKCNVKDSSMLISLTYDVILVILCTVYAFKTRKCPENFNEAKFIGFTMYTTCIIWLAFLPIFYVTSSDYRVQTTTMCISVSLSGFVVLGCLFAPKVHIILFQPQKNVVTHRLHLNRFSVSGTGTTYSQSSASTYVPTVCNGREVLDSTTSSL

- %max [1]: 65%
- pEC50 [1]: 7.43
- solubility [2]: 18 µM (≈ 7.34 µg/mL)
- AUC [3]: 3.9 µM·h
SMILES: Cn1c(=O)n(CC(C)(C)C)c2ccc(N3CC4CCC3CN4c3ncccn3)nc21 (racemic)

- %max [1]: 87%
- pEC50 [1]: 6.37
- pEC50 [4]: < 4.52
- pEC50 [5]: < 4.52
- pEC50 [6]: < 4.52
- pEC50 [7]: < 4.52
SMILES: Cn1c(=O)n(CC(C)(C)C)c2ccc(N3CCCCC3)nc21

- %max [1]: 60%
- pEC50 [1]: 6.48
- pEC50 [4]: < 4.52
- pEC50 [5]: < 4.52
- pEC50 [6]: < 4.52
- pEC50 [7]: < 4.52
SMILES: Cn1c(=O)n(CC(C)(C)C)c2ccc(N3CCCc4ccccc43)nc21

- %max [1]: 74%
- pEC50 [1]: 6.83
- solubility [2]: 186 µM (≈ 79 µg/mL)
- AUC [3]: 2 µM·h
SMILES: Cc1cc(CN2CC3CCC2CN3c2ccc3c(n2)n(C)c(=O)n3CC(C)(C)C)no1 (racemic)

- %max [1]: 74%
- pEC50 [1]: 6.94
- solubility [2]: 183 µM (≈ 79.5 µg/mL)
- half-life [8]: 0.5 h
- CL free (Rattus norvegicus [9]): 2.9 mL/min/kg
- AUC (Rattus norvegicus [10]): 18 µM·h
- F (Rattus norvegicus [11]): 73%
SMILES: Cn1c(=O)n(CC(C)(C)C)c2ccc(N3CC4CCC3CN4C(=O)c3cccnc3)nc21 (racemic)

SMILES: Cn1c(=O)n(CC(C)(C)C)c2ccc(N3CC4CCC3CN4)nc21 (racemic)
- %max [1]: 71%
- pEC50 [1]: 5.89
- pEC50 [4]: < 4.52
- pEC50 [5]: < 4.52
- pEC50 [6]: < 4.52
- pEC50 [7]: < 4.52

- %max [1]: 79%
- pEC50 [1]: 6.27
- inhibition at 10 µM (CYP3A4 [12]): 7%
SMILES: Cn1c(=O)n(CC(C)(C)C)c2ccc(C3CCN(C(=O)c4ccon4)CC3)nc21

- %max [1]: 71%
- pEC50 [1]: 7.44
- solubility [2]: 66 µM (≈ 28.6 µg/mL)
- half-life [8]: 1.2 h
- clearance [13]: 69 mL/min/kg
- CL free (Rattus norvegicus [9]): 35 mL/min/kg
- AUC [3]: 2 µM·h
- bioavailability [14]: 10%
SMILES: Cn1c(=O)n(CC(C)(C)C)c2ccc(N3CC4CCC3CN4C(=O)c3ccccc3)nc21 (racemic)

- fraction unbound [15]: 0.02
- %max [1]: 78%
- pEC50 [4]: < 4.52
- pEC50 [5]: < 4.52
- pEC50 [6]: < 4.52
- pEC50 [7]: < 4.52
- half-life [16]: 16 h
- half-life [8]: 10 h
- CL free (Rattus norvegicus [9]): 17 mL/min/kg
- inhibition at 10 µM (CYP3A4 [12]): 6%
- CL free (Canis familiaris): 4.7 mL/min/kg
- concentration (Cerebrospinal fluid): 61 nM
- fraction unbound [20]: 0.02
- Activity [21]: inactive
- Activity [22]: inactive
- Activity (Homo sapiens): inactive
SMILES: Cn1c(=O)n(CC(C)(C)C)c2ccc(C3=C[C@@H]4CC[C@H]3CN4C(=O)c3ccon3)nc21
- Activity (Rattus norvegicus [17]): Active
- Activity (Salmonella typhimurium [18]): Non-toxic
- Activity (Salmonella typhimurium [19]): Non-toxic

- %max [1]: 77%
- pEC50 [1]: 5.66
- pEC50 [4]: < 4.52
- pEC50 [5]: < 4.52
- pEC50 [6]: < 4.52
- pEC50 [7]: < 4.52
SMILES: Cn1c(=O)n(CC(C)(C)C)c2ccc(N3CCCC4CCCCC43)nc21 (mixture of isomers)

- Activity [23]: Not Active
- efflux ratio (P-gp [24]): 1.1
- Papp (P-gp [25]): 30 ×10⁻⁶ cm/s
- %max [1]: 72%
- pEC50 [1]: 7.54
- %max [26]: 49%
- pEC50 [26]: 6.20
- fold change (FC) [27]: 26
- pEC50 [4]: < 4.52
- pEC50 [5]: < 4.52
- pEC50 [6]: < 4.52
- pEC50 [7]: < 4.52
- solubility [2]: 116 µM (≈ 51.2 µg/mL)
- half-life [16]: 2.5 h
- clearance [28]: 14 mL/min/kg
- AUC [3]: 13 µM·h
SMILES: Cn1c(=O)n(CC(C)(C)C)c2ccc(N3C[C@@H]4CC[C@H]3CN4C(=O)c3csnn3)nc21

- fraction unbound [15]: 0.08
- Activity [23]: Not Active
- efflux ratio (P-gp [24]): 1.5
- Papp (P-gp [25]): 31 ×10⁻⁶ cm/s
- %max [1]: 78%
- pEC50 [1]: 7.54
- %max [26]: 35%
- pEC50 [26]: 6.18
- fold change (FC) [27]: 12
- pEC50 [4]: < 4.52
- pEC50 [5]: < 4.52
- pEC50 [6]: < 4.52
- pEC50 [7]: < 4.52
- solubility [2]: 125 µM (≈ 53.1 µg/mL)
- half-life [16]: 12 h
- half-life [8]: 2.3 h
- clearance [28]: 7 mL/min/kg
- clearance [13]: 28 mL/min/kg
- CL free (Rattus norvegicus [9]): 4.7 mL/min/kg
- AUC [3]: 14 µM·h
- AUC [29]: 1.3 µM·h
- bioavailability [14]: 72%
- bioavailability [30]: 24%
- CLint scaled at 10 µM [31]: < 55 mL/min/kg
- concentration (Plasma): 3200 nM
- kinact (CYP3A4 [33]): 0.00107 s⁻¹
- pKi (Cytochrome P450 3A4): 6.27
- TDI (Cytochrome P450 3A4; human, microsomes): Active
- inhibition at 10 µM (CYP3A4 [12]): 73%
- CL free (Canis familiaris): 0.9 mL/min/kg
- fraction unbound [20]: 0.06
- pEC50 [34]: 7.12
SMILES: Cn1c(=O)n(CC(C)(C)C)c2ccc(N3C[C@@H]4CC[C@H]3CN4C(=O)c3ccon3)nc21
- Activity (Rattus norvegicus [32]): Active
- Activity (Rattus norvegicus [17]): Active

- %max [1]: 70%
- pEC50 [1]: 6.90
- pEC50 [4]: < 4.52
- pEC50 [5]: < 4.52
- pEC50 [6]: < 4.52
- pEC50 [7]: < 4.52
SMILES: Cn1c(=O)n(CC(C)(C)C)c2ccc(N3CC4CCC3CN4C(=O)OC(C)(C)C)nc21 (racemic)
